From patent US20150065347A1, “CO-CRYSTALS OF DICAMBA AND A CO-CRYSTAL FORMER B” (priority 2012, published 2015)
Values after ≈ are worked out from the molar mass of the structure shown.

How the values were obtained:
[1] = Water solubility of the co-crystals (slurry equilibration, HPLC); type: physicochemical; conditions: water suspension (slurry), thermodynamic from solid; water suspensions slurried for 24 hours, filtered, liquid phase by HPLC, room temperature
Description: The determination of the amount of the actives in solution was performed on HPLC ACQUITY (Water) system, equipped with PDA—230 nm UV detector and Sample Manager auto-injector. Waters' Enpower software was used to record the chromatograms and to calculate the chromatographic parameters. […] Injection volume was set 1 μL by auto injector. The analysis were performed with rate flux of 0.4 ml/min. UV detection was performed at 245 nm. Peak identities were confirmed by spectrum and retention time comparison. All the analyses were performed at room temperature. All the analyzed solutions were prepared by slurry equilibration experiments. […] The suspensions were filtered and both solid phase and liquid phase were analyzed by XRPD and HPLC, respectively.

[2] = Isothermal TGA volatility study; type: physicochemical; conditions: isothermal TGA at 100° C., weight loss monitored for 12 hours, nitrogen flow
Description: TG/DTA measurement was carried out on a Seiko TG/DTA 7200 instrument. An open aluminium pan was used and the measurement was carried out under nitrogen flow with a sample weight of 5 to 10 mg. The isothermal TGA for volatility studies were performed at 100° C. and the weight loss was monitored for 12 hours.

solubility at 24 h [1]: 6.55 mg/mL (≈ 29.6 mM)
TGA Volatility (% weight loss per minute) [2]: 1.20 × 10^−2 % weight loss per minute
SMILES: COc1c(Cl)ccc(Cl)c1C(=O)O [Dicamba, 3,6-dichloro-2-methoxybenzoic acid]
